# Data: US9522888B2, “Substituted bicyclic compounds” (BRISTOL-MYERS SQUIBB COMPANY, priority 2014, dated 2016)
# Columns and labels:
# [1] = biological target: human S1P1 (Homo sapiens (Human), UniProt P21453); experiment: S1P1 binding assay (33P-S1P radioligand competition, CHO cell membranes); details: phosphate examples; read-out: S1P1 Binding
# Method in brief: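 Radioligand is 33P-S1P, competing for membranes from human S1P1-expressing CHO cells. Membranes resuspended in 50 mM HEPES pH 7.5, 100 mM NaCl, 1 mM MgCl2, 2 mM EDTA.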
# [2] = biological target: S1P1 (membranes prepared from S1P1/CHO cells) (Homo sapiens (Human), UniProt P21453); experiment: Receptor [35S] GTPγS binding assay (S1P1 GTPγS); format: biochemical; details: phosphate examples; read-out: S1P1 GTPγS
# S1P1 (membranes prepared from S1P1/CHO cells), sequence (P21453 whole entry): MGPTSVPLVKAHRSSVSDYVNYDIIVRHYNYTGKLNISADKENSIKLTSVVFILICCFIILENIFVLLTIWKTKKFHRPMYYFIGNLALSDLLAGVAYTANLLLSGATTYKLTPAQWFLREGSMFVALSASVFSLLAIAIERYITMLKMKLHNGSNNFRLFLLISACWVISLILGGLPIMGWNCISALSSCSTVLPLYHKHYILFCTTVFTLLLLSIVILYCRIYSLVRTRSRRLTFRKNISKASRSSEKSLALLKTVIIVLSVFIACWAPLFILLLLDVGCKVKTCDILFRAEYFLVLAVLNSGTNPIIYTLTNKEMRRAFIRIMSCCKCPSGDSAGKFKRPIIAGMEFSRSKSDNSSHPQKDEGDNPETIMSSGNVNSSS
# Method in brief: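 Membranes from S1P1-expressing CHO cells (3 μg protein/well) incubated with compound (11-point, 3-fold dilution) and 0.2 nM final [35S]GTPγS, 45 min at room temperature. Assay buffer: 20 mM HEPES pH 7.5, 10 mM MgCl2, 150 mM NaCl, 10 μM GDP, 0.1% fatty-acid-free BSA, 10 μg/ml saponin. Filter-bound radioactivity counted by scintillation; EC50 derived.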
# [3] = biological target: S1P3 (membranes prepared from EDG3-Gal5-bla HEK293T cells) (Homo sapiens (Human), UniProt Q99500); experiment: Receptor [35S] GTPγS binding assay (S1P3 GTPγS); format: biochemical; details: phosphate examples; read-out: S1P3 GTPγS
# S1P3 (membranes prepared from EDG3-Gal5-bla HEK293T cells), sequence (Q99500 whole entry): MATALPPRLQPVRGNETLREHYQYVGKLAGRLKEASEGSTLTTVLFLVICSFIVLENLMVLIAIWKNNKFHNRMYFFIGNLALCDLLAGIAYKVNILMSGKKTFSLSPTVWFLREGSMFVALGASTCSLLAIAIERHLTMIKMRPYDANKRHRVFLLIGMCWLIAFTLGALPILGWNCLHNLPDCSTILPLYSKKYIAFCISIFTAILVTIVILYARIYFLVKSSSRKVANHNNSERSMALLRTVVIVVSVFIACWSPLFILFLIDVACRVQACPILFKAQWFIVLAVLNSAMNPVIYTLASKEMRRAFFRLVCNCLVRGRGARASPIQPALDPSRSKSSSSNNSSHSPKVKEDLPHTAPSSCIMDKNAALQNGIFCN
# Method in brief: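 Membranes (3 μg protein/well) from S1P1/CHO cells or EDG3-Gal5-bla HEK293T cells (S1P3) were incubated 45 min at room temperature with 0.2 nM final [35S]GTPγS in HEPES pH 7.5 buffer with 10 μM GDP, MgCl2 and saponin. Bound label counted after filtration; EC50 from 11-point, 3-fold dilutions.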
# [4] = biological target: hS1P1/CHO cells (Homo sapiens (Human), UniProt P21453); experiment: hS1P1 ERK phosphorylation (S1P1 pERK); format: cell-based; details: phosphate examples
# hS1P1/CHO cells, sequence (P21453 whole entry): as the sequence (P21453 whole entry) above
# Method in brief: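 CHO cells expressing human S1P1, serum-starved 2 h, exposed to compound in HBSS/20 mM HEPES for 7 min at 37° C. Lysates assayed for phospho-ERK by SureFire kit; response given as % activation relative to 10 μM S1P.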
# human S1P1, sequence (P21453 whole entry): as above
SMILES,IC50 [1] [nM],EC50 [2] [nM],EC50 [3] [nM],EC50 [4] [nM]
CCCCC[C@@H]1CCc2cc([C@@H]3CC[C@@](N)(COP(=O)(O)O)C3)ccc2C1 [compound 577],< 10,< 10,> 625,< 10
"COc1cccc(F)c1CC[C@H]1CCc2cc([C@@H]3CC[C@@](N)(COP(=O)(O)O)C3)ccc2C1 (single isomer, unassigned) [compound 607]",100 to 1000,100 to 1000,> 625,10 to 100
N[C@]1(COP(=O)(O)O)CC[C@H](c2ccc3c(c2)CC[C@@H](CCCC2CCOCC2)C3)C1 [compound 557],10 to 100,10 to 100,> 625,10 to 100
N[C@]1(COP(=O)(O)O)CC[C@H](c2ccc3c(c2)CC[C@H](c2ccccc2)C3)C1 [compound 569],< 10,10 to 100,> 625,< 10
COc1cc(OC[C@@H]2CCc3cc([C@H]4CC[C@](N)(COP(=O)(O)O)C4)ccc3C2)ccc1Cl [compound 493],< 10,< 10,> 625,10 to 100
CCCCC=C[C@H]1CCc2cc([C@H]3CC[C@](N)(COP(=O)(O)O)C3)ccc2C1 [compound 648],10 to 100,10 to 100,> 625,10 to 100
CC/C=C/CC[C@H]1CCc2cc([C@H]3CC[C@](N)(COP(=O)(O)O)C3)ccc2C1 [compound 658],< 10,10 to 100,> 625,< 10
CCCSC[C@H]1CCc2cc([C@H]3CC[C@](N)(COP(=O)(O)O)C3)ccc2C1 [compound 532],< 10,< 10,> 625,< 10
CCCCCC[C@@H]1Cc2ccc([C@H]3CC[C@](N)(COP(=O)(O)O)C3)cc2CO1 [compound 427],10 to 100,< 10,> 625,< 10
N[C@@]1(COP(=O)(O)O)CC[C@@H](c2ccc3c(c2)CC[C@@H](CCc2ccc4ccccc4n2)C3)C1 [compound 605],< 10,< 10,> 625,< 10
N[C@]1(COP(=O)(O)O)CC[C@H](c2ccc3c(c2)CC[C@@H](CSc2ccncc2)C3)C1 [compound 517],10 to 100,10 to 100,> 625,< 10
COc1cccc(OCC[C@H]2CCc3cc([C@H]4CC[C@](N)(COP(=O)(O)O)C4)ccc3C2)c1 [compound 545],10 to 100,10 to 100,> 625,< 10
CCCSCC[C@@H]1CCc2cc([C@H]3CC[C@](N)(COP(=O)(O)O)C3)ccc2C1 [compound 535],< 10,< 10,> 625,< 10
COc1cccc(CCC[C@@H]2CCc3cc([C@H]4CC[C@](N)(COP(=O)(O)O)C4)ccc3C2)c1 [compound 564],10 to 100,10 to 100,> 625,10 to 100
CC(C)=CCOC[C@@H]1CCc2cc([C@H]3CC[C@](N)(COP(=O)(O)O)C3)ccc2C1 [compound 453],10 to 100,10 to 100,> 625,< 10
N[C@]1(COP(=O)(O)O)CC[C@@H](c2ccc3c(c2)CC[C@H](CSc2ccccc2)C3)C1 [compound 507],100 to 1000,100 to 1000,> 625,10 to 100
"N[C@@]1(COP(=O)(O)O)CC[C@@H](c2ccc3c(c2)CC[C@H](OCCOCc2cccs2)C3)C1 (single isomer, unassigned) [compound 589]",< 10,10 to 100,> 100,< 10

SMILES,IC50 [1] [nM],EC50 [2] [nM],EC50 [3] [nM],EC50 [4] [nM]
N[C@]1(COP(=O)(O)O)CC[C@H](c2ccc3c(c2)CC[C@H](Cc2ccccc2)C3)C1 [compound 572],< 10,< 10,> 625,10 to 100
CC(C)CSC[C@H]1CCc2cc([C@H]3CC[C@](N)(COP(=O)(O)O)C3)ccc2C1 [compound 509],10 to 100,10 to 100,> 625,< 10
COc1cc(OC[C@@H]2CCc3cc([C@H]4CC[C@](N)(COP(=O)(O)O)C4)ccc3C2)ccc1F [compound 485],10 to 100,10 to 100,> 625,10 to 100
CCOCC[C@@H]1CCc2cc([C@H]3CC[C@](N)(COP(=O)(O)O)C3)ccc2C1 [compound 541],< 10,10 to 100,> 625,< 10
CCCCCSC[C@H]1CCc2cc([C@H]3CC[C@](N)(COP(=O)(O)O)C3)ccc2C1 [compound 512],< 10,< 10,> 625,10 to 100
"COc1ccc(CC[C@@H]2CCc3cc(C4CCC(N)(COP(=O)(O)O)C4)ccc3C2)cc1 (single isomer, unassigned) [compound 593]",< 10,10 to 100,> 625,10 to 100
Cc1ccccc1OC[C@H]1CCc2cc([C@H]3CC[C@](N)(COP(=O)(O)O)C3)ccc2C1 [compound 468],< 10,10 to 100,> 625,10 to 100
"C=CCOCCO[C@@H]1CCc2cc(C3CCC(N)(COP(=O)(O)O)C3)ccc2C1 (single isomer, unassigned) [compound 579]",100 to 1000,100 to 1000,> 625,10 to 100
COc1ccc(SC[C@@H]2CCc3cc([C@H]4CC[C@](N)(COP(=O)(O)O)C4)ccc3C2)cc1 [compound 529],< 10,10 to 100,> 625,< 10
CCCC/C=C/[C@@H]1CCc2cc([C@H]3CC[C@](N)(COP(=O)(O)O)C3)ccc2C1 [compound 636],10 to 100,10 to 100,> 625,10 to 100
COc1ccccc1/C=C/[C@@H]1CCc2cc([C@H]3CC[C@](N)(COP(=O)(O)O)C3)ccc2C1 [compound 641],100 to 1000,10 to 100,> 625,10 to 100
C=CCCCC[C@@H]1CCc2cc([C@H]3CC[C@](N)(COP(=O)(O)O)C3)ccc2C1 [compound 555],< 10,10 to 100,> 625,10 to 100
"C=CCOCCC[C@@H]1CCc2cc(C3CCC(N)(COP(=O)(O)O)C3)ccc2C1 (single isomer, unassigned) [compound 601]",< 10,100 to 1000,> 100,< 10
COc1ccc(C[C@@H]2CCc3cc([C@H]4CC[C@](N)(COP(=O)(O)O)C4)ccc3C2)cc1OC [compound 553],100 to 1000,100 to 1000,> 625,< 10
CC(C)Oc1ccc(C[C@@H]2CCc3cc([C@H]4CC[C@](N)(COP(=O)(O)O)C4)ccc3C2)cc1 [compound 559],100 to 1000,100 to 1000,> 625,10 to 100
CCCCCC(=O)NC1CCc2cc([C@H]3CC[C@@](N)(COP(=O)(O)O)C3)ccc2C1 (stereo partly drawn) [compound 629],100 to 1000,100 to 1000,> 625,< 10
